According to patent EP0162576A1, “Ethanolamine compounds” (GLAXO GROUP LIMITED, priority 1984, dated 1985):
Structures can show the parent of a compound that is named as a salt.

Key:
β2-adrenoreceptors = biological target: T1, β2-adrenoreceptors (Cavia porcellus, UniProt Q8K4Z4); assay: Guinea-pig tracheal strip preparation (relaxation of PGF2a-contracted trachea); format: cell-based; details: equipotent concentration = EC50 test compound / EC50 isoprenaline; tracheal rings contracted with prostaglandin F2a (2.9x10^-6M), 37°
T1 construct: from tissue; host or cells: isolated guinea-pig trachea (tracheal rings)
T1 sequence (Q8K4Z4 whole entry): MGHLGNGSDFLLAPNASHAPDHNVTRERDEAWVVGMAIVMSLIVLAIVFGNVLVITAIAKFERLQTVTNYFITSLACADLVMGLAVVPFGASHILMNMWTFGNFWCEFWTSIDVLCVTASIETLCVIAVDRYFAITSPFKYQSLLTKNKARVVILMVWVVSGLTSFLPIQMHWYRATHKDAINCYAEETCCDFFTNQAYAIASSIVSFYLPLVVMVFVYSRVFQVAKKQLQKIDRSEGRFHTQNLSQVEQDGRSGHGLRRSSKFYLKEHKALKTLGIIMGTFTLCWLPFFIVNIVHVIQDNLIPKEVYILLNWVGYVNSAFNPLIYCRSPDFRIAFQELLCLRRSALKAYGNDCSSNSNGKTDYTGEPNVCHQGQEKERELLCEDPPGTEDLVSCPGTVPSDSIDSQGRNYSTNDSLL
Method: The compounds according to the invention have a selective stimulant action at P2-adrenoreceptors, which furthermore is of a particularly advantageous profile. […] Compounds according to the invention have shown a particularly long duration of action in this test.
The stimulant action at β2-adrenoreceptors of compounds of the invention was determined using the following:
GUINEA-PIG TRACHEAL STRIP PREPARATION
Tracheal rings were mounted in a superfusion apparatus, and continuously superfused with oxygenated physiological (Kreb's) solution containing indomethacin (2.4x10 ^6M) and atropine (4x10^-7M) at 37° at a rate of 2ml/min. Changes in tension of the preparation were measured using an isometric strain gauge. Preparations were contracted for the duration of the test by the inclusion of prostaglandin F2a (2.9x10^-6M) in the superfusion fluid. Two bolus dose-effect curves to the standard, isoprenaline, (1x10^-12-1x10^-9 moles) were obtained at the start of each test in a cumulative fashion, allowing the relaxation obtained with each to reach its own maximum before the next increment was made. On completion of this dose-effect curve, sufficient time was allowed for the tissue to recover (15-30min). After this time, sequential concentration-effect curves were constructed for first isoprenaline and then the test compound. These were constructed as follows: a low concentration (isoprenaline 3x10-^10M; test compound 1x10^-10M) was infused until any response obtained had reached its maximum, then the infusion was stopped and the tissue allowed to recover for a maximum of 30min. After this period the procedure was repeated using progressively increasing concentrations of agonist, and in this way, whole concentration-effect curves obtained. Potency was determined by comparison of the concentration-effect curve thus constructed with that previously obtained for isoprenaline and expressed as equipotent concentration (isoprenaline = 1) i.e. EC50 test compound was calculated.
Duration of action was also measured for each response, and is the time taken from stopping the infusion to 50% recovery. Graphs were drawn for duration times against response magnitude, and from these, duration times for 50% maximum responses were determined.

guinea pigs = assay: Oral administration to guinea pigs, adverse effects; format: in vivo; details: administered orally to guinea pigs at a dose of 5mg/kg
From the text: In general, the compounds according to the invention are non-toxic at therapeutically useful doses.

Row | Potency (Isoprenaline = 1) (β2-adrenoreceptors) | SMILES | adverse effects (guinea pigs)
1 | 0.15 | CC(CCCCCOCCc1ccccc1)NCC(O)c1cc(O)cc(O)c1 (stereo not shown) [Example 12, 5-[1-Hydroxy-2-[[1-methyl-6-(2-phenylethoxy)hexyl]amino]ethyl]-1,3-benzenediol benzoate (salt)] | 
2 | 0.13 | CC(CCCCCOCCc1ccc(F)cc1)NCC(O)c1cc(O)cc(O)c1 (stereo not shown) [Example 14, 5-[2-[[6-[2-(4-Fluorophenyl)ethoxy]-1-methylhexyl]amino]-1-hydroxyethyl]-1,3-benzenediol, benzoate (salt)] | 
3 | 0.6 | COc1ccc(CCOCCCCCCNCC(O)c2ccc(O)c(O)c2)cc1 (stereo not drawn) [Example 17, 4-[l-Hydroxy-2-[[6-[2-(4-methoxyphenyl)ethoxy]hexyl]amino]ethyl]-1,2-benzenediol] | 

Continued, molecule first:

Row | SMILES | Potency (Isoprenaline = 1) (β2-adrenoreceptors) | adverse effects (guinea pigs)
4 | CC(CCCCCOCCc1ccccc1)NCC(O)c1ccc(O)c(CCO)c1 (stereo not shown) [Example 5, 2-Hydroxy-5-[1-hydroxy-2-[[1-metlayl-6-(2-phenylethoxy)hexyl]amino]ethyl]benzeneethanol hydrochloride (4:3)] | 0.17 | 
5 | CC(CCCCCOCCc1ccccc1)NCC(O)c1ccc(O)c2[nH]c(=O)ccc12 (stereo not shown) [Example 6, 8-Hydroxy-5-[1-hydroxy-2-[[1-methyl-6-(2-phenylethoxy)hexyl]amino]ethyl]-2(1H)-quinolinone] | 0.16 | no adverse effects
6 | Oc1ccc(C(O)CNCCCCCCOCCCCc2ccccc2)cc1O (stereo not shown) [Example 7, 4-[1-Hydroxy-2-[[6-(4-phenylbutoxy)hexyl]amino]ethyl]-1,2-benzenediol] |  | no adverse effects
7 | CC(CCCCCOCCc1ccccc1)NC[C@H](O)c1ccc(O)c(O)c1 (stereo partly drawn) [Example 8, (1R)-4-[1-Hydroxy-2-[1-methyl-6-(2-phenylethoxy)hexyl]amino]ethyl-1,2-benzenediol.] | 0.4 | no adverse effects
8 | Oc1cc(O)cc(C(O)CNCCCCCCOCCCCc2ccccc2)c1 (stereo not shown) [Example 10, 5-[1-Hydroxy-2-[[6-(4-phenylbutoxy)hexyl]amino]ethyl]-1,3-benzenediol] |  | no adverse effects
